US10633379B2, “Bromodomain inhibitors” (AbbVie Inc., priority 2016, dated 2020)

Tests used:
[1] = target: BRD4 (BDI_K57-E168) (Homo sapiens (Human), UniProt O60885); assay: TR-FRET bromodomain binding assay, BRD4 BDI; conditions: mean Ki, calculated from IC50, probe Kd and probe concentration
Protocol: (§1) A time-resolved fluorescence resonance energy transfer (TR-FRET) assay was used to determine the affinities of compounds of the Examples listed in Table 1 for each bromodomain of BRD4. His-tagged first (BDI: amino acids K57-E168) and second (BDII: amino acids E352-M457) bromodomains of BRD4 were expressed and purified. An Alexa647-labeled BET-inhibitor was used as the fluorescent probe in the assay.
(§2) Compound dilution series were prepared in DMSO via an approximately 3-fold serial dilution. Compound dilutions were added directly into white, low-volume assay plates (Perkin Elmer Proxiplate 384 Plus#6008280) using a Labcyte Echo in conjunction with Labcyte Access and Thermo Multidrop CombinL robotics. Compounds were then suspended in eight microliters (μL) of assay buffer (20 mM Sodium Phosphate, pH 6.0, 50 mM NaCl, 1 mM Ethylenediaminetetraacetic acid disodium salt dihydrate, 0.01% Triton X-100, 1 mM DL-Dithiothreitol) containing His-tagged bromodomain, Europium-conjugated anti-His antibody (Invitrogen PV5596) and Alexa-647-conjugated probe.
(§3) The final concentration of 1× assay mixture contained 2% DMSO, 12 nM His tagged BRD4 (BDI_K57-E168) and 100 nM probe or 4 nM His tagged BRD4 (BDII_E352-M457) and 30 nM probe, and 1 nM Europium-conjugated anti-His-tag antibody, and compound concentrations in the range of: 49.02 μM-0.61 nM or 0.98 μM-0.15 nM.
(§4) After a one-hour equilibration at room temperature, TR-FRET ratios were determined using an Envision multilabel plate reader (Ex 340, Em 495/520).
(§5) TR-FRET data were normalized to the means of 24 no-compound controls (“high”) and 8 controls containing 1 μM un-labeled probe (“low”). Percent inhibition was plotted as a function of compound concentration and the data were fit with the 4 parameter logistic equation to obtain IC50s. Inhibition constants (Ki) were calculated from the IC50s, probe Kd and probe concentration.

[2] = target: BRD4 (BDII_E352-M457) (Homo sapiens (Human), UniProt O60885); assay: TR-FRET bromodomain binding assay, BRD4 BDII; conditions: mean Ki, calculated from IC50, probe Kd and probe concentration
Protocol: as §1, §2, §3, §4, §5

Structure (SMILES)	Ki [1] [nM]	Ki [2] [nM]
CCNC(=O)c1cc2c(-c3cc([C@@](C)(O)CO)ccc3Oc3c(C)cccc3C)cn(C)c(=O)c2[nH]1 (single isomer, unassigned) [Example 68]	341	2.2
CCNC(=O)c1cc2c(-c3cc([C@](C)(O)CO)ccc3Oc3c(C)cccc3C)cn(C)c(=O)c2[nH]1 (single isomer, unassigned) [Example 69, 4-{5-[(25)-1,2-dihydroxypropan-2-yl]-2-(2,6-dimethylphenoxy)phenyl}-N-ethyl-6-methyl-7-oxo-6,7-dihydro-1H-pyrrolo[2,3-c]pyridine-2-carboxamide]	499	2.3
CCNC(=O)c1cc2c(-c3cc(S(C)(=O)=O)ccc3Oc3ccc(F)cc3F)cn(C)c(=O)c2[nH]1 [Compound Y, 4-[2-(2,4-difluorophenoxy)-5-(methylsulfonyl)phenyl]-N-ethyl-6-methyl-7-oxo-6,7-dihydro-1H-pyrrolo[2,3-c]pyridine-2-carboxamide, reference compound]	21.6	1.32
Cn1cc(-c2cc(CO)ccc2Oc2ccccc2)c2cc[nH]c2c1=O [Compound Z, 4-[5-(hydroxymethyl)-2-phenoxyphenyl]-6-methyl-1,6-dihydro-7H-pyrrolo[2,3-c]pyridin-7-one, reference compound]	69.9	15.5
CCNC(=O)c1cc2c(-c3cc(C(C)(C)O)cnc3Oc3c(C)cccc3C)cn(C)c(=O)c2[nH]1 [Example 1, 4-[2-(2,6-dimethylphenoxy)-5-(2-hydroxypropan-2-yl)pyridin-3-yl]-N-ethyl-6-methyl-7-oxo-6,7-dihydro-1H-pyrrolo[2,3-c]pyridine-2-carboxamide]	462	2.3
CCNC(=O)c1cc2c(-c3cc(C(O)(CC)CC)cnc3Oc3c(C)cccc3C)cn(C)c(=O)c2[nH]1 [Example 2, 4-[2-(2,6-dimethylphenoxy)-5-(3-hydroxypentan-3-yl)pyridin-3-yl]-N-ethyl-6-methyl-7-oxo-6,7-dihydro-1H-pyrrolo[2,3-c]pyridine-2-carboxamide]	220	3
CCNC(=O)c1cc2c(-c3cc(C(C)(C)O)ccc3Oc3c(C)cccc3C)cn(C)c(=O)c2[nH]1 [Example 3, 4-[2-(2,6-dimethylphenoxy)-5-(2-hydroxypropan-2-yl)phenyl]-N-ethyl-6-methyl-7-oxo-6,7-dihydro-1H-pyrrolo[2,3-c]pyridine-2-carboxamide]	404	1.1
CCNC(=O)c1cc2c(-c3cc(C4(O)CC=CC4)cnc3Oc3c(C)cccc3C)cn(C)c(=O)c2[nH]1 [Example 4, 4-[2-(2,6-dimethylphenoxy)-5-(1-hydroxycyclopent-3-en-1-yl)pyridin-3-yl]-N-ethyl-6-methyl-7-oxo-6,7-dihydro-1H-pyrrolo[2,3-c]pyridine-2-carboxamide]	215	3.1
CCNC(=O)c1cc2c(-c3cc(C4(O)CC=CC4)ccc3Oc3c(C)cccc3C)cn(C)c(=O)c2[nH]1 [Example 5, 4-[2-(2,6-dimethylphenoxy)-5-(1-hydroxycyclopent-3-en-1-yl)phenyl]-N-ethyl-6-methyl-7-oxo-6,7-dihydro-1H-pyrrolo[2,3-c]pyridine-2-carboxamide]	187	1.6
CCNC(=O)c1cc2c(-c3cc(C4(O)CCCC4)cnc3Oc3c(C)cccc3C)cn(C)c(=O)c2[nH]1 [Example 6, 4-[2-(2,6-dimethylphenoxy)-5-(1-hydroxycyclopentyl)pyridin-3-yl]-N-ethyl-6-methyl-7-oxo-6,7-dihydro-1H-pyrrolo[2,3-c]pyridine-2-carboxamide]	273	2.3
CCNC(=O)c1cc2c(-c3cc(C(O)(CC)c4ccccc4)cnc3Oc3c(C)cccc3C)cn(C)c(=O)c2[nH]1 (stereo not shown) [Example 7, 4-[2-(2,6-dimethylphenoxy)-5-(1-hydroxy-1-phenylpropyl)pyridin-3-yl]-N-ethyl-6-methyl-7-oxo-6,7-dihydro-1H-pyrrolo[2,3-c]pyridine-2-carboxamide]	632	4.1
CCNC(=O)c1cc2c(-c3cc(C(C)(O)CC)cnc3Oc3c(C)cccc3C)cn(C)c(=O)c2[nH]1 (stereo not shown) [Example 8, 4-[2-(2,6-dimethylphenoxy)-5-(2-hydroxybutan-2-yl)pyridin-3-yl]-N-ethyl-6-methyl-7-oxo-6,7-dihydro-1H-pyrrolo[2,3-c]pyridine-2-carboxamide]	359	2.3
CCNC(=O)c1cc2c(-c3cc(C(O)(CC)c4ccc(F)cc4)cnc3Oc3c(C)cccc3C)cn(C)c(=O)c2[nH]1 (stereo not shown) [Example 9, 4-{2-(2,6-dimethylphenoxy)-5-[1-(4-fluorophenyl)-1-hydroxypropyl]pyridin-3-yl}-N-ethyl-6-methyl-7-oxo-6,7-dihydro-1H-pyrrolo[2,3-c]pyridine-2-carboxamide]	601	3.8
CCNC(=O)c1cc2c(-c3cc(C(O)(CC)CC(C)C)cnc3Oc3c(C)cccc3C)cn(C)c(=O)c2[nH]1 (stereo not shown) [Example 10, 4-[2-(2,6-dimethylphenoxy)-5-(3-hydroxy-5-methylhexan-3-yl)pyridin-3-yl]-N-ethyl-6-methyl-7-oxo-6,7-dihydro-1H-pyrrolo[2,3-c]pyridine-2-carboxamide]	715	5.4
CCNC(=O)c1cc2c(-c3cc(C(O)(CC)C4CCCC4)cnc3Oc3c(C)cccc3C)cn(C)c(=O)c2[nH]1 (stereo not shown) [Example 11, 4-[5-(1-cyclopentyl-1-hydroxypropyl)-2-(2,6-dimethylphenoxy)pyridin-3-yl]-N-ethyl-6-methyl-7-oxo-6,7-dihydro-1H-pyrrolo[2,3-c]pyridine-2-carboxamide]	170	2.6
CCNC(=O)c1cc2c(-c3cc(C(O)(CC)C4CC4)cnc3Oc3c(C)cccc3C)cn(C)c(=O)c2[nH]1 (stereo not shown) [Example 12, 4-[5-(1-cyclopropyl-1-hydroxypropyl)-2-(2,6-dimethylphenoxy)pyridin-3-yl]-N-ethyl-6-methyl-7-oxo-6,7-dihydro-1H-pyrrolo[2,3-c]pyridine-2-carboxamide]	97	1.9
CCNC(=O)c1cc2c(-c3cc(C(O)(CC)C(C)CC)cnc3Oc3c(C)cccc3C)cn(C)c(=O)c2[nH]1 (stereo not shown) [Example 13, 4-[2-(2,6-dimethylphenoxy)-5-(3-hydroxy-4-methylhexan-3-yl)pyridin-3-yl]-N-ethyl-6-methyl-7-oxo-6,7-dihydro-1H-pyrrolo[2,3-c]pyridine-2-carboxamide]	114	2
CCNC(=O)c1cc2c(-c3cc(C(O)(CC)CCc4ccccc4)cnc3Oc3c(C)cccc3C)cn(C)c(=O)c2[nH]1 (stereo not shown) [Example 14, 4-[2-(2,6-dimethylphenoxy)-5-(3-hydroxy-1-phenylpentan-3-yl)pyridin-3-yl]-N-ethyl-6-methyl-7-oxo-6,7-dihydro-1H-pyrrolo[2,3-c]pyridine-2-carboxamide]	965	2.3
CCNC(=O)c1cc2c(-c3cc(C(O)(CC)Cc4ccc(F)cc4)cnc3Oc3c(C)cccc3C)cn(C)c(=O)c2[nH]1 (stereo not shown) [Example 15, 4-{2-(2,6-dimethylphenoxy)-5-[1-(4-fluorophenyl)-2-hydroxybutan-2-yl]pyridin-3-yl}-N-ethyl-6-methyl-7-oxo-6,7-dihydro-1H-pyrrolo[2,3-c]pyridine-2-carboxamide]	1840	26.5
CCNC(=O)c1cc2c(-c3cc(C(C)(O)c4ccccc4)cnc3Oc3c(C)cccc3C)cn(C)c(=O)c2[nH]1 (stereo not shown) [Example 16, 4-[2-(2,6-dimethylphenoxy)-5-(1-hydroxy-1-phenylethyl)pyridin-3-yl]-N-ethyl-6-methyl-7-oxo-6,7-dihydro-1H-pyrrolo[2,3-c]pyridine-2-carboxamide]	333	2.3
CCNC(=O)c1cc2c(-c3cc(C(C)(O)c4ccc(F)cc4)cnc3Oc3c(C)cccc3C)cn(C)c(=O)c2[nH]1 (stereo not shown) [Example 17, 4-{2-(2,6-dimethylphenoxy)-5-[1-(4-fluorophenyl)-1-hydroxyethyl]pyridin-3-yl}-N-ethyl-6-methyl-7-oxo-6,7-dihydro-1H-pyrrolo[2,3-c]pyridine-2-carboxamide]	467	3
CCNC(=O)c1cc2c(-c3cc(C(C)(O)CC(C)C)cnc3Oc3c(C)cccc3C)cn(C)c(=O)c2[nH]1 (stereo not shown) [Example 18, 4-[2-(2,6-dimethylphenoxy)-5-(2-hydroxy-4-methylpentan-2-yl)pyridin-3-yl]-N-ethyl-6-methyl-7-oxo-6,7-dihydro-1H-pyrrolo[2,3-c]pyridine-2-carboxamide]	449	3.8
CCNC(=O)c1cc2c(-c3cc(C(C)(O)C(C)C)cnc3Oc3c(C)cccc3C)cn(C)c(=O)c2[nH]1 (stereo not shown) [Example 19, 4-[2-(2,6-dimethylphenoxy)-5-(2-hydroxy-3-methylbutan-2-yl)pyridin-3-yl]-N-ethyl-6-methyl-7-oxo-6,7-dihydro-1H-pyrrolo[2,3-c]pyridine-2-carboxamide]	196	4
